Measured values: PMC5773651, “Customised in vitro model to detect human metabolism-dependent idiosyncratic drug-induced liver injury” (Archives of Toxicology, 2017)
Like-named read-outs stand apart in the source and are kept apart here. Marks after values point to notes of the source that are not given here.

Tests used:
[1] = tested on: HepG2 cells transduced with CYP3A4 in the presence of CYP2C19; experiment: HCS hepatotoxicity assay (MEC, TR), AdCYP3A4 + AdCYP2C19 HepG2; format: cell-based, human; details: CYP3A4-4X + CYP2C19-1X, 24 h
Description: For all the compounds and studied parameters, the MEC led to at least a 20% variation in fluorescence intensity or in the corresponding morphological parameter compared to the untreated cultures.

[2] = ref Atienzar et al. ([2014]), Garside et al. ([2014]), Tolosa et al. ([2012b]); cited from earlier work
HepG2 cells [3] = experiment: Cell viability (PI), IC50, control HepG2 cells; format: cell-based; details: Homo sapiens; control non-transduced HepG2; 24 h; unit inferred, tested range in µM; read-out: IC50 (cell viability), C
HepG2 cells [4] = details: human, 24 h
Description: (§1) For subculturing purposes, cells were detached by treatment with 0.25% trypsin/0.02% EDTA at 37 °C. For the adenovirus infection studies, cells were seeded in 96-well plates (5000 cells/well) and adenovirus-containing medium was added 48 h later. After 24 h, cells were transferred to the adenovirus-free medium and cultured for an additional 24-h period prior to the incubations performed with the test chemicals. To optimise the expression of the functional enzymes in the adenovirus-transduced HepG2 (Ad-HepG2) cells, different doses (MOI, multiplicity of infection, defined as plaque formation units per cell) of each adenovirus were tested.
(§2) The drugs included in the study were chosen based on previous information about their hepatotoxicity. Information on the potential mechanisms implicated in the toxicity of each compound and the major enzymes involved in their metabolism is summarised in Table 1. HepG2 or Ad-HepG2 (48 h post-infection) cells were exposed for 24 h to eight concentrations of the tested compounds. Each experimental condition was repeated independently three times (with three wells measured each time). The stock solutions of compounds were prepared in DMSO and were conveniently diluted in the culture medium to obtain the desired final concentrations. The final DMSO concentration in the culture medium was 0.5% (v/v), and the control cultures were treated with the same amount of solvent.
(§3) Following treatments, cells were simultaneously loaded with several fluorescent dyes to measure multiple biomarkers of cell toxicity. […] Information about the probes is summarised in Supplementary Table S2.
(§4) After incubating with dyes, cells were imaged by the Scan^R system (Olympus, Germany). Dyes were excited, and their fluorescence was monitored at the excitation and emission wavelengths at appropriate filter settings. The collected images were analysed using the Scan^R analysis module, which allows the simultaneous quantification of subcellular structures that are stained by different fluorescent probes.

[5] = tested on: HepG2 cells transduced with AdCYP3A4; experiment: HCS hepatotoxicity assay (MEC, TR), AdCYP3A4-HepG2; format: cell-based, human; details: 24 h; for TR: TR = 100 x Cmax/lowest MEC; for MEC Apoptosis / MEC Calcium / MEC MMP / MEC Mitochondrial superoxide / MEC ROS: unit not given, tested range in µM
[6] = tested on: HepG2 cells transduced with AdCYP2C9; experiment: Cell viability (PI), IC50, AdCYP2C9-HepG2; format: cell-based; details: Homo sapiens, unit inferred, tested range in µM
[7] = tested on: HepG2 cells co-transduced with AdCYP3A4 and AdCYP2C9; experiment: HCS hepatotoxicity assay (MEC, TR), AdCYP3A4 + AdCYP2C9 HepG2; format: cell-based, human; details: 24 h; for TR: TR = 100 x Cmax/lowest MEC; for MEC Apoptosis / MEC Calcium / MEC MMP / MEC Mitochondrial superoxide / MEC ROS: unit not given, tested range in µM
[8] = tested on: HepG2 cells transduced with AdCYP3A4; experiment: Cell viability (PI), IC50, AdCYP3A4-HepG2; format: cell-based; details: Homo sapiens, unit inferred, tested range in µM
Description: as §1, §2, §3, §4

[9] = tested on: HepG2 cells transduced with AdCYP2C19; experiment: Cell viability (PI), IC50, AdCYP2C19-HepG2; format: cell-based; details: Homo sapiens, unit inferred, tested range in µM
Description: as §1, §2, §3, §4

[10] = tested on: HepG2 cells co-transduced with AdCYP3A4 and AdUGT2B7; experiment: HCS hepatotoxicity assay (MEC, TR), AdCYP3A4 + AdUGT2B7 HepG2; format: cell-based, human; details: 24 h; for TR: TR = 100 x Cmax/lowest MEC; for MEC Apoptosis / MEC Calcium / MEC MMP / MEC Mitochondrial superoxide / MEC ROS: unit not given, tested range in µM
[11] = tested on: HepG2 cells transduced with AdCYP2C9; experiment: HCS hepatotoxicity assay (MEC, TR), AdCYP2C9-HepG2; format: cell-based, human; details: 24 h; for TR: TR = 100 x Cmax/lowest MEC; for MEC Apoptosis / MEC Calcium / MEC MMP / MEC Mitochondrial superoxide / MEC ROS: unit inferred, tested range in µM
Description: as §1, §2, §3, §4

[12] = cited from earlier work; for Bioactivation / Enzyme: major enzyme(s) involved in the bioactivation (denoted as *) or detoxification of the drug: previous information; for Toxicity (mechanisms of toxicity): ref Ashrafian et al. [2007], Donato et al. [2009], Fromenty and Pessayre [1997], Rolo et al. [2000], Tolosa et al. [2012b]
[13] = unit not given, tested range in µM
[14] = ADV CYP2C9 x1, 24 h, read-out: IC50 (cell viability), ADV dose x1
[15] = ADV CYP2C9 x4, 24 h, read-out: IC50 (cell viability), ADV dose x4
[16] = ADV CYP2C9 x10, 24 h, read-out: IC50 (cell viability), ADV dose x10
[17] = ADV CYP3A4 x1, 24 h, read-out: IC50 (cell viability), ADV dose x1
[18] = ADV CYP3A4 x4, 24 h, read-out: IC50 (cell viability), ADV dose x4
[19] = ADV CYP3A4 x10, 24 h, read-out: IC50 (cell viability), ADV dose x10

## O=C(O)Cc1ccccc1Nc1c(Cl)cccc1Cl [Diclofenac]
[1]; TR = 100 x Cmax/lowest MEC
  TR: 42
[1]; [13]
  MEC Apoptosis: 50
  MEC Calcium: 50
  MEC MMP: 125
  MEC Mitochondrial superoxide: 10
  MEC ROS: 10
[2]
  Cmax: 4.2 µM
HepG2 cells [3]
  IC50: 167 µM
HepG2 cells [4]
  MEC Apoptosis: 125 µM
  MEC Calcium: 50
  MEC MMP: 250
  MEC Mitochondrial superoxide: 125
  MEC ROS: 50
  TR: 8.4
[5]; AdCYP 3A4 1x
  TR: 42
  MEC Apoptosis: 125
  MEC Calcium: 10
  MEC MMP: 125
  MEC Mitochondrial superoxide: 50
  MEC ROS: 10
[5]; AdCYP 3A4 4x
  TR: 84
  MEC Apoptosis: 10
  MEC Calcium: 10
  MEC MMP: 125
  MEC Mitochondrial superoxide: 5
  MEC ROS: 5
[6]; [14]
  IC50: 42.1 µM
[6]; [15]
  IC50: 51.6 µM
[6]; [16]
  IC50: 15.5 µM
[7]; CYP3A4-1X + CYP2C9-1X
  TR: 84
  MEC Apoptosis: 125
  MEC Calcium: 10
  MEC MMP: 125
  MEC Mitochondrial superoxide: 50
  MEC ROS: 5
[7]; CYP3A4-4X + CYP2C9-1X
  TR: 84
  MEC Apoptosis: 10
  MEC Calcium: 10
  MEC MMP: 125
  MEC Mitochondrial superoxide: 5
  MEC ROS: 5
[8]; [17]
  IC50: 126 µM
[8]; [18]
  IC50: 99 µM
[8]; [19]
  IC50: 2.8 µM
[9]; ADV CYP2C19 x1, 24 h, read-out: IC50 (cell viability), ADV dose x1
  IC50: 140 µM
[9]; ADV CYP2C19 x4, 24 h, read-out: IC50 (cell viability), ADV dose x4
  IC50: 158 µM
[9]; ADV CYP2C19 x10, 24 h, read-out: IC50 (cell viability), ADV dose x10
  IC50: 11.5 µM
[10]; CYP3A4-1X + UGT2B7
  TR: 84
  MEC Apoptosis: 5
  MEC Calcium: 10
  MEC MMP: 50
  MEC Mitochondrial superoxide: 5
  MEC ROS: 5
[10]; CYP3A4-4X + UGT2B7
  TR: 84
  MEC Apoptosis: 5
  MEC Calcium: 5
  MEC MMP: 50
  MEC Mitochondrial superoxide: 5
  MEC ROS: 5

## O=C(O)COc1ccc(C(=O)c2cccs2)c(Cl)c1Cl [Tienilic acid]
[11]; AdCYP 2C9 1x
  TR: 13.8
  MEC Apoptosis: 600 µM
  MEC Calcium: 600 µM
  MEC MMP: > 1200 µM
  MEC Mitochondrial superoxide: 600 µM
  MEC ROS: 800 µM
[11]; AdCYP 2C9 4x
  TR: 20.7
  MEC Apoptosis: 400 µM
  MEC Calcium: 400 µM
  MEC MMP: > 1200 µM
  MEC Mitochondrial superoxide: 400 µM
  MEC ROS: 600 µM
[11]; AdCYP 2C9 10x
  TR: 41.3
  MEC Apoptosis: 200 µM
  MEC Calcium: 200 µM
  MEC MMP: > 1200 µM
  MEC Mitochondrial superoxide: 400 µM
  MEC ROS: 400 µM
[2]
  Cmax: 82.7 µM
HepG2 cells [3]
  IC50: > 1200 µM
HepG2 cells [4]
  MEC Apoptosis: 1200 µM
  MEC Calcium: 800
  MEC MMP: >1200
  MEC Mitochondrial superoxide: 800
  MEC ROS: 1200
  TR: 10.3
[6]; [14]
  IC50: > 1200 µM
[6]; [15]
  IC50: 1160 µM
[6]; [16]
  IC50: 846 µM
[12]
  Bioactivation: Yes
  Enzyme: major enzyme(s) involved in the bioactivation (denoted as *) or detoxification of the drug: CYP2C9*
  Toxicity (mechanisms of toxicity): CB, OS

## Cc1c(C)c2c(c(C)c1O)CCC(C)(COc1ccc(CC3SC(=O)NC3=O)cc1)O2 (stereo not drawn) [Troglitazone]
HepG2 cells [3]
  IC50: 213 µM
HepG2 cells [4]
  MEC Apoptosis: 100 µM
  MEC Calcium: 100
  MEC MMP: 200
  MEC Mitochondrial superoxide: 200
  MEC ROS: 100
  TR: 6.4
[5]; AdCYP 3A4 1x
  TR: 12.8
  MEC Apoptosis: 100
  MEC Calcium: 75
  MEC MMP: 200
  MEC Mitochondrial superoxide: 200
  MEC ROS: 50
[5]; AdCYP 3A4 4x
  TR: 12.8
  MEC Apoptosis: 75
  MEC Calcium: 50
  MEC MMP: 200
  MEC Mitochondrial superoxide: 75
  MEC ROS: 50
[5]; AdCYP 3A4 10x
  TR: 12.8
  MEC Apoptosis: 50
  MEC Calcium: 50
  MEC MMP: 150
  MEC Mitochondrial superoxide: 50
  MEC ROS: 50
[8]; [17]
  IC50: 86 µM
[8]; [18]
  IC50: 76 µM
[8]; [19]
  IC50: < 50 µM
[12]
  Bioactivation: Yes
  Enzyme: major enzyme(s) involved in the bioactivation (denoted as *) or detoxification of the drug: CYP3A4*
  Toxicity (mechanisms of toxicity): MI, OS
[12]; ref Gustafsson et al. ([2014])
  DILI category: Severe
